Assay results published in patent publication US20170210723A1, “MOLECULES HAVING PESTICIDAL UTILITY, AND INTERMEDIATES, COMPOSITIONS, AND PROCESSES, RELATED THERETO” (priority 2016, published 2017).

How the values were obtained:
Type in all cases: in vivo
[1] = tested on: Beet Armyworm (Spodoptera exigua); test: Bioassays on BAW, 128-well diet tray assay; details: for mortality at 50 µg/cm2 / mortality at 0.05 µg/cm2 / mortality at 0.5 µg/cm2 / mortality at 5 µg/cm2: Spodoptera exigua; for mortality at 50 µg/cm2: 168 h, read-out: BAW % Control (or Mortality) rating; for mortality at 0.05 µg/cm2: 0.05 μg/cm^2; for mortality at 0.05 µg/cm2 / mortality at 0.5 µg/cm2 / mortality at 5 µg/cm2: read-out: BAW Percent control (or mortality); for mortality at 0.5 µg/cm2: 0.5 μg/cm^2; for mortality at 5 µg/cm2: 5 μg/cm^2
[2] = tested on: Yellow Fever Mosquito (Aedes aegypti); test: Bioassays on Yellow Fever Mosquito larvae, 96-well plate; details: from 4000 ppm DMSO master plate, about 1 day-old larvae, 3 days
Procedure: Master plates containing 400 μg of a molecule dissolved in 100 μL of dimethyl sulfoxide (DMSO) (equivalent to a 4000 ppm solution) are used. A master plate of assembled molecules contains 15 μL per well. To this plate, 135 μL of a 90:10 water:acetone mixture is added to each well. A robot (Biomek® NXP Laboratory Automation Workstation) is programmed to dispense 15 μL aspirations from the master plate into an empty 96-well shallow plate (“daughter” plate). There are 6 reps (“daughter” plates) created per master. The created daughter plates are then immediately infested with YFM larvae.
The day before plates are to be treated, mosquito eggs are placed in Millipore water containing liver powder to begin hatching (4 g. into 400 mL). After the daughter plates are created using the robot, they are infested with 220 μL of the liver powder/larval mosquito mixture (about 1 day-old larvae). After plates are infested with mosquito larvae, a non-evaporative lid is used to cover the plate to reduce drying. Plates are held at room temperature for 3 days prior to grading. After 3 days, each well is observed and scored based on mortality. The results are indicated in the table entitled “Table ABC: Biological Results” (See Table Section). AGRICULTURALLY ACCEPTABLE ACID ADDITION SALTS, SALT DERIVATIVES, SOLVATES, ESTER DERIVATIVES, POLYMORPHS, ISOTOPES, AND RADIONUCLIDES

[3] = tested on: Cabbage Looper (Trichoplusia ni); test: Bioassays on CL, 128-well diet tray assay; details: for mortality at 50 µg/cm2 / mortality at 0.05 µg/cm2 / mortality at 0.5 µg/cm2 / mortality at 5 µg/cm2: Trichoplusia ni; for mortality at 50 µg/cm2: 168 h, read-out: CL % Control (or Mortality) rating; for mortality at 0.05 µg/cm2: 0.05 μg/cm^2; for mortality at 0.05 µg/cm2 / mortality at 0.5 µg/cm2 / mortality at 5 µg/cm2: read-out: CL Percent control (or mortality); for mortality at 0.5 µg/cm2: 0.5 μg/cm^2; for mortality at 5 µg/cm2: 5 μg/cm^2
Method in brief: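 Second-instar larvae (1–5 per well) were fed diet surface-treated with 50 μg/cm^2 compound, eight wells each. After five to seven days at 25° C. under a 14:10 photoperiod, mortality was scored per well and the eight wells averaged.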

[4] = 50 μg/cm^2 on artificial diet, second instar larvae, five to seven days

Row | Structure (SMILES) | mortality at 50 µg/cm2 [1, 4] [%] | YFM % Control (or Mortality) rating [2] | mortality at 50 µg/cm2 [3, 4] [%] | other results
1 | O=C(NCCSCC(F)(F)F)c1ccc(/C=C/C(c2cc(Cl)c(Cl)c(Cl)c2)C(F)(F)F)cc1Br (stereo not drawn) [F1, (E)-2-bromo-4-(4,4,4-trifluoro-3-(3,4,5-trichlorophenyl)but-1-en-1-yl)-N-(2-((2,2,2-trifluoroethyl)thio)ethyl)benzamide] | 50 to 100 | A (80-100) | 50 to 100 | –
2 | O=C(NCC[S+]([O-])Cc1ccccc1)c1ccc(/C=C/C(c2cc(Cl)c(Cl)c(Cl)c2)C(F)(F)F)cc1Br (stereo not drawn) [F2, (E)-N-(2-(Benzylsulfinyl)ethyl)-2-bromo-4-(4,4,4-trifluoro-3-(3,4,5-trichlorophenyl)but-1-en-1-yl)benzamide] | 50 to 100 | A (80-100) | 50 to 100 | –
3 | O=C(NCC[S+]([O-])CC(F)(F)F)c1ccc(/C=C/C(c2cc(Cl)c(Cl)c(Cl)c2)C(F)(F)F)cc1Br (stereo not drawn) [F3, (E)-2-bromo-4-(4,4,4-trifluoro-3-(3,4,5-trichlorophenyl)but-1-en-1-yl)-N-(2-((2,2,2-trifluoroethyl)sulfinyl)ethyl)benzamide] | 50 to 100 | B (More than 0-Less than 80) | 50 to 100 | –
4 | CC[C@H](CSCCC(F)(F)F)NC(=O)c1ccc(/C=C/C(c2cc(Cl)c(Cl)c(Cl)c2)C(F)(F)F)cc1C(F)(F)F (stereo partly drawn) [F11, 4-((E)-4,4,4-trifluoro-3-(3,4,5-trichlorophenyl)but-1-en-1-yl)-2-(trifluoromethyl)-N—((R)-1-((3,3,3-trifluoropropyl)thio)butan-2-yl)benzamide] | 50 to 100 | B (More than 0-Less than 80) | 50 to 100 | –
5 | CC[C@H](CSCC(F)(F)F)NC(=O)c1ccc(/C=C/C(c2cc(Cl)c(Cl)c(Cl)c2)C(F)(F)F)cc1C(F)(F)F (stereo partly drawn) [F12, 4-((E)-4,4,4-Trifluoro-3-(3,4,5-trichlorophenyl)but-1-en-1-yl)-N—((R)-1-((2,2,2-trifluoroethyl)thio)butan-2-yl)-2-(trifluoromethyl)benzamide] | 50 to 100 | A (80-100) | 50 to 100 | –
6 | CC[C@H](CSCC1CC1(F)F)NC(=O)c1ccc(/C=C/C(c2cc(Cl)c(Cl)c(Cl)c2)C(F)(F)F)cc1C(F)(F)F (stereo partly drawn) [F13, N-((2R)-1-(((2,2-Difluorocyclopropyl)methyl)thio)butan-2-yl)-4-((E)-4,4,4-trifluoro-3-(3,4,5-trichlorophenyl)but-1-en-1-yl)-2-(trifluoromethyl)benzamide] | 50 to 100 | A (80-100) | 50 to 100 | –
7 | CC(C)[C@H](CSCC(F)(F)F)NC(=O)c1ccc(/C=C/C(c2cc(Cl)c(Cl)c(Cl)c2)C(F)(F)F)cc1C(F)(F)F (stereo partly drawn) [F14, N—((R)-3-Methyl-1-((2,2,2-trifluoroethyl)thio)butan-2-yl)-4-((E)-4,4,4-trifluoro-3-(3,4,5-trichlorophenyl)but-1-en-1-yl)-2-(trifluoromethyl)benzamide] | 50 to 100 | A (80-100) | 50 to 100 | –
8 | CC[C@H](CS(=O)(=O)CCC(F)(F)F)NC(=O)c1ccc(/C=C/C(c2cc(Cl)c(Cl)c(Cl)c2)C(F)(F)F)cc1C(F)(F)F (stereo partly drawn) [F21, 4-((E)-4,4,4-Trifluoro-3-(3,4,5-trichlorophenyl)but-1-en-1-yl)-2-(trifluoromethyl)-N—((R)-1-((3,3,3-trifluoropropyl)sulfonyl)butan-2-yl)benzamide] | 50 to 100 | A (80-100) | 50 to 100 | –
9 | C[C@H](CS(=O)(=O)CC(F)(F)F)NC(=O)c1ccc(/C=C/C(c2cc(Cl)c(Cl)c(Cl)c2)C(F)(F)F)cc1C(F)(F)F (stereo partly drawn) [F24, 4-((E)-4,4,4-Trifluoro-3-(3,4,5-trichlorophenyl)but-1-en-1-yl)-N—((R)-1-((2,2,2-trifluoroethyl)sulfonyl)propan-2-yl)-2-(trifluoromethyl)benzamide] | 50 to 100 | A (80-100) | 50 to 100 | mortality at 0.05 µg/cm2 [1]: 100%; mortality at 0.5 µg/cm2 [1]: 100%; mortality at 5 µg/cm2 [1]: 100%; mortality at 0.05 µg/cm2 [3]: 100%; mortality at 0.5 µg/cm2 [3]: 100%; mortality at 5 µg/cm2 [3]: 100%
10 | CS(=O)(=O)CC[C@@H](NC(=O)c1ccc(/C=C/C(c2cc(Cl)c(Cl)c(Cl)c2)C(F)(F)F)cc1C(F)(F)F)C(=O)NCC(F)(F)F (stereo partly drawn) [F27, N—((R)-4-(Methylsulfonyl)-1-oxo-1-((2,2,2-trifluoroethyl)amino)butan-2-yl)-4-((E)-4,4,4-trifluoro-3-(3,4,5-trichlorophenyl)but-1-en-1-yl)-2-(trifluoromethyl)benzamide] | – | A (80-100) | – | BAW % Control (or Mortality) rating [1, 4]: A (50-100); CL % Control (or Mortality) rating [3, 4]: A (50-100)
11 | CSCC[C@@H](NC(=O)c1ccc(/C=C/C(c2cc(Cl)c(Cl)c(Cl)c2)C(F)(F)F)cc1C(F)(F)F)C(=O)NCC(F)(F)F (stereo partly drawn) [F28, N—((R)-4-(Methylthio)-1-oxo-1-((2,2,2-trifluoroethyl)amino)butan-2-yl)-4-((E)-4,4,4-trifluoro-3-(3,4,5-trichlorophenyl)but-1-en-1-yl)-2-(trifluoromethyl)benzamide] | 50 to 100 | A (80-100) | 50 to 100 | –
12 | C[C@H](CSCC(F)(F)F)NC(=O)c1ccc(/C=C/C(c2cc(Cl)c(F)c(Cl)c2)C(F)(F)F)cc1Br (stereo partly drawn) [F34, 2-Bromo-4-((E)-3-(3,5-dichloro-4-fluorophenyl)-4,4,4-trifluorobut-1-en-1-yl)-N—((R)-1-((2,2,2-trifluoroethyl)thio)propan-2-yl)benzamide] | 50 to 100 | A (80-100) | 50 to 100 | –
13 | C[C@H](CS(=O)(=O)CC(F)(F)F)NC(=O)c1ccc(/C=C/C(c2cc(Cl)c(F)c(Cl)c2)C(F)(F)F)cc1C(F)(F)F (stereo partly drawn) [F36, 4-((E)-3-(3,5-Dichloro-4-fluorophenyl)-4,4,4-trifluorobut-1-en-1-yl)-N—((R)-1-((2,2,2-trifluoroethyl)sulfonyl)propan-2-yl)-2-(trifluoromethyl)benzamide] | 50 to 100 | A (80-100) | 50 to 100 | –
14 | C[C@H](C[S+]([O-])CC(F)(F)F)NC(=O)c1ccc(/C=C/C(c2cc(Cl)c(F)c(Cl)c2)C(F)(F)F)cc1C(F)(F)F (stereo partly drawn) [F37] | 50 to 100 | A (80-100) | 50 to 100 | –
15 | C[C@H](C[S+]([O-])CC(F)(F)F)NC(=O)c1ccc(/C=C/C(c2cc(Cl)c(Cl)c(Cl)c2)C(F)(F)F)cc1Br (stereo partly drawn) [F39, 2-Bromo-4-((E)-4,4,4-trifluoro-3-(3,4,5-trichlorophenyl)but-1-en-1-yl)-N-((2R)-1-((2,2,2-trifluoroethyl)sulfinyl)propan-2-yl)benzamide] | 50 to 100 | A (80-100) | 50 to 100 | –
16 | Cc1cc(/C=C/C(c2cc(Cl)c(Cl)c(Cl)c2)C(F)(F)F)ccc1C(=O)N[C@H](C)CS(=O)(=O)CC(F)(F)F (stereo partly drawn) [F40, 2-Methyl-4-((E)-4,4,4-trifluoro-3-(3,4,5-trichlorophenyl)but-1-en-1-yl)-N—((R)-1-((2,2,2-trifluoroethyl)sulfonyl)propan-2-yl)benzamide] | 50 to 100 | A (80-100) | 50 to 100 | mortality at 0.05 µg/cm2 [1]: 60%; mortality at 0.5 µg/cm2 [1]: 100%; mortality at 5 µg/cm2 [1]: 100%; mortality at 0.05 µg/cm2 [3]: 100%; mortality at 0.5 µg/cm2 [3]: 100%; mortality at 5 µg/cm2 [3]: 100%
17 | C[C@H](CSCC(F)(F)F)NC(=O)c1ccc(/C=C/C(c2cc(Br)c(Cl)c(Br)c2)C(F)(F)F)cc1C(F)(F)F (stereo partly drawn) [F41, 4-((E)-3-(3,5-Dibromo-4-chlorophenyl)-4,4,4-trifluorobut-1-en-1-yl)-N—((R)-1-((2,2,2-trifluoroethyl)thio)propan-2-yl)-2-(trifluoromethyl)benzamide] | 50 to 100 | A (80-100) | 50 to 100 | –
